According to patent US20030013658A1, “Small peptides and methods for treatment of asthma and inflammation” (Hisatek, LLC, priority 1997, published 2003):
Entries after “also recorded” stand apart in the source; their conditions may differ. Where no end group is shown, it is not given here. The star is where a group is joined. For = O=C*

Tested on: OVA-sensitized/challenged mice
Assay: OVA-induced bronchial asthma mouse model (Standard/Resolution protocols, 1-3 month), airway eosinophils and mucus plugs
Format: in vivo
Description: The OVA-induced Bronchial Asthma Mouse Model for Inhibition of Mast Cell Degranulation
Reagents: Crystalline OVA was obtained from Pierce Chem. Co. (Rockford, Ill.) aluminum potassium sulfate (alum) from Sigma Chem. Co. (St. Louis, Mo.), pyrogen-free distilled water from Baxter, Healthcare Corporation (Deerfield, Ill.), 0.9% sodium chloride (normal saline) from Lymphomed (Deerfield, Ill.) and Trappsol™ HPB-L100 (aqueous hydroxypropyl beta cyclodextrin; 45 wt/vol % aqueous solution) from Cyclodextrin Technologies Development, Inc. (Gainesville, Fla.). The OVA (500 μg/ml in normal saline) was mixed with equal volumes of 10% (wt/vol) alum in distilled water. The mixture (pH 6.5 using 10 N NaOH) after incubation for 60 minutes at room temperature underwent centrifugation at 750 g for 5 minutes; the pellet was resuspended to the original volume in distilled water and used within one hour.
The selective 5-lipoxtgenase inhibitor, Zileuton (N-[1-benzo[b]thien-2-ylethyl]-N-hydroxyurea; J. Pharmacol Exp Ther. 1991; 256: 929-937), was kindly provided by Drs. Bell and George W. Carter (Abbott Laboratories, Abbott Part, Ill.). Zileuton was dissolved in Trappsol.™. Histatek, Inc. (Seattle, Wash.) provided the mast cell degranulation inhibitor, f-Met-Leu-Phe-Phe (“HK-X”).
Female BALB/c […] (6-8 wk of age at purchase; D and K, Seattle Wash.) were housed under conventional conditions for the studies.
Allergen Immunization/Challenge Protocols: Mice received an i.p. injection of 0.2 ml (100 μg) of OVA with alum on the different protocols of Standard (FIG. 5A) and Resolution (FIG. 5B) (J. Exp Med. 1996; 184: 1483-1494). According to the different protocols, mice were anesthetized with 0.2 ml i.p. of ketamine (0.44 mg/ml)/xylazine (6.3 mg/ml) in normal saline before receiving an intranasal (i.n.) does of 100 μg OVA in 0.05 ml normal saline and an i.n. dose of 50 μg OVA in 0.05 ml normal saline separately on different days. Two control groups were used. Accordingly, the first group received normal saline with alum i.p. and normal saline without alum i.n.; the second group received OVA with alum i.p., OVA without alum i.n., and normal saline, alone.
The trachea and left lung (the right lung is used for bronchoalveolar lavage (“BAL”)) were obtained and fixed in 10% neutral formaldehyde solution at room temperature for 6˜15 h. After being embedded in paraffin, the tissues were cut into 5-um sections and processed with the different staining or immunolabling further. Discombe's eosinophil staining was used for counting the cell numbers with the counterstain of methylene blue. The eosinophil number per unit airway area (2,200 μm^2) was determined by morphometry (J. Pathol. 1992; 166: 395-404; Am Rev Respir Dis. 1993; 147:448-456). Fibrosis was identified with the Masson's trichrome staining. Airway mucus was identified by the following staining method: methylene blue, hematoxylin and eosin, mucicarmine, alcian blue, and alcian blue/periodic acid-Schiff (PAS) reaction (Troyer, H., “Carbohydrates” in Principles and Techniques of Histochemistry, Little, Brown and Company, Boston, Mass., 1980: 89-121; Sheehan, D. C., et al., “Carbohydrates” in Theory and Practice of Histotechnology, Battle Press, Columbus, Ohio, 1980: 159-179) Mucin was stained with mucicarmine solution; metanil yellow counterstain was employed. Acidic mucin and sulfated mucosubstances were stained with alcian blue, pH 2.5; nuclear fast red counterstain was used. Neutral and acidic mucosubstances were identified by alcian blue, pH 2.5, and PAS reaction. The degree of mucus plugging of the airways (0.5-0.8 mm in diameter) was also assessed by morphometry. The percent occlusion of airway diameter by mucus was classified on a semiquantitative scale from 0 to 4+ as described in Figure Legends. The histologic and morphometric analyses were performed by individuals blinded to the protocol design. […]

f-Met-Leu-Phe-Phe (For-MLFF) [Example 9]
AIRWAY INFLUX OF EOSINOPHILS (%) (1 month): 14.20% | % of plug of airway (28 days): 19% | PERCENTAGE OF EOSINOPHILS IN AIRWAY TISSUE (28 days of treatment): 14.2% | MUCUS PLUG SCORE IN AIRWAYS (28 days, semiquantitative scale 0 to 4+): 1.4 | mucus accumulation / mucus release in airway (HK-X given before i.n. OVA, morphometry, FIG. 6, listed as HK-X): inhibits mucus accumulation in the airway; also recorded: airway mucus release in the airway (AW) lumen is markedly reduced | infiltration of the interstitial tissue by eosinophils (compared to OVA-challenge alone, FIG. 6C): infiltration of the interstitial tissue by eosinophils is also reduced | formation of mucus plugs / mucus production in small airways (doses of 5 μg/kg and 10 μg/kg, FIG. 7): Both doses significantly reduce the mucus production in small airways | reduction of airway eosinophils compared with Zileuton (one month): reduced eosinophils comparably at one month | reduction of airway eosinophils compared with Zileuton (two and three months): much more beneficially at two and three months
